This is an account of results in patent US20240344028A1, “Serum-free media for producing adipocytes for animal consumption” (Mosa Meat B.V., priority 2021, published 2024).

One assay deals with MSC cells. The experiment in a line: PPARγ agonist testing in 2D adipogenic differentiation. The format is cell-based, bovine. As to conditions: 12 days, indomethacin 50 μM, others 10 μM. The protocol:
(§1) At 90% confluence, proliferated MSCs were trypsinized and seeded in a 96-well collagen coated cell culture plate at 30,000 cells/cm^2 in SF-PM. After 24 hours, adipogenesis was induced by changing SF-PM to DMAD (the serum-free differentiation medium as depicted in Example 1), which was maintained on the cells for a period of 12 days with media changes every 3-4 days. As a control differentiation medium (ctrl), DMEM/F12 with 3% FBS was supplemented with 4 conventional adipogenic inducers (IBMX (Sigma Aldrich-15879; 0.5 mM), dexamethasone (Sigma Aldrich-D4902; 10 μM), rosiglitazone (Sigma Aldrich-R2408; 5 μM) and insulin (Peprotech-10-365; 10 μM)). All 4 inducers were used for the first 3 days of culture and only insulin and rosiglitazone were used for the remaining 9 days.
(§2) Cells were fixed on days 6 and 12 with 4% PFA for 20 minutes at room temperature and washed twice with PBS. Cells were then stained with Hoechst (ThermoFisher 493/503, 1:2000) and BODIPY (Sigma Aldrich 345880, 1:1000) in PBS for 30 minutes. Adipogenic differentiation was quantified using the ImageXPress Pico High Content Analyser (HCA; Molecular devices). The parameters measured were total area of lipid, lipid droplet average area and percentage of positive cells. For the percentage of positive cells, the HCA software assigned BODIPY immunoreactivity to the nearest nuclei, (i.e. a positive cell) and the number of BODIPY positive nuclei was then divided by the total number of nuclei.
MSC cells were cultured as described in Example 2. With the exception that indomethacin (50 μM; 17378 from Sigma Aldrich) was replaced with one of the following three PPARΥ agonists to test their efficiency: magnolol (M3445 from Sigma Aldrich) at 10 μM; honokiol (H4914 from Sigma Aldrich) at 10 μM and amorfrutin B (SMB00532 from Sigma Aldrich) at 10 μM.

Assay [1] deals with Adipogenic progenitor cells. The assay is described as follows: 2D adipogenic differentiation with DMAD components removed or at changed concentration. It counts as cell-based, bovine. To be noted: for effect of removing the component from DMAD on percentage of positive cells and total lipid area: single component removed from DMAD. How it is done: as §1, §2
Adipogenic progenitor cells were cultured as described in Example 2, with the exception that single components (FGF, EGF, insulin, vitamin C, hydrocortisone, BMP4, lipid concentrate, HEPES, putrescine, progesterone) of the DMAD medium (the serum-free differentiation medium as depicted in Example 1) were removed. In addition, different concentrations (50% and 200%) were tested for EGF, FGF, vitamin C, hydrocortisone and progesterone.

Consider `COc1ccc2c(c1)c(CC(=O)O)c(C)n2C(=O)c1ccc(Cl)cc1` [indomethacin], for which, in the assay on MSC cells, the “adipogenic differentiation in DMAD with this PPARγ agonist” value (shortened to “adipogenic differentiation in DMAD”) is listed as “able to undergo adipogenic differentiation” and the “level of differentiation, ranking among the PPARγ agonists” value is “highest level of differentiation”.

Consider “insulin: recombinant human insulin, 10-365 from Peprotech”, for which the “effect of removing the component from DMAD on percentage of positive cells and total lipid area” value in assay [1] is given as “significantly decreased differentiation”.

With `CC(=O)[C@H]1CC[C@H]2[C@@H]3CCC4=CC(=O)CC[C@]4(C)[C@H]3CC[C@]12C` [progesterone], the “effect of removing the component from DMAD on percentage of positive cells and total lipid area” value in assay [1] is recorded as “did not have significant effects”.

Regarding `NCCCCN` [putrescine, butane-1,4-diamine], in assay [1], the “effect of removing the component from DMAD on percentage of positive cells and total lipid area” value is given as “did not have significant effects”.

Take `O=S(=O)(O)CCN1CCN(CCO)CC1` [HEPES, 4-(2-hydroxyethyl)-1-piperazineethanesulfonic acid]: the “effect of removing the component from DMAD on percentage of positive cells and total lipid area” value in assay [1] is given as “did not have significant effects”.

As to “FGF: recombinant human FGF2, 100-18B from Peprotech”, the “effect of removing the component from DMAD on percentage of positive cells and total lipid area” value in assay [1] was “did not have significant effects”.

`C=CCc1ccc(O)c(-c2ccc(O)c(CC=C)c2)c1` [honokiol]: in the assay on MSC cells, the “adipogenic differentiation in DMAD” value is listed as “able to undergo adipogenic differentiation”.

For `C=CCc1ccc(O)c(-c2cc(CC=C)ccc2O)c1` [magnolol], in the assay on MSC cells, the “adipogenic differentiation in DMAD” value is “able to undergo adipogenic differentiation” and the “level of differentiation, ranking among the PPARγ agonists” value was “highest level of differentiation”.

Consider `C[C@]12CCC(=O)C=C1CC[C@@H]1[C@@H]2[C@@H](O)C[C@@]2(C)[C@H]1CC[C@]2(O)C(=O)CO` [hydrocortisone], for which the “effect of removing the component from DMAD on percentage of positive cells and total lipid area” value in assay [1] is on record as “significantly decreased differentiation”.

Regarding “EGF: recombinant human EGF, AF-100-15 from Peprotech (NSDSECPLSHDGYCLHDGVCMYIEALDKYACNCVVGYIGERCQYRDLKWWELR; Epidermal growth factor; UniProt P01133 971-1023, looked up)”, the “effect on adipogenesis (total lipid area) of decreasing the component's concentration in DMAD” value in assay [1] (50% of the standard concentration vs 100% control) is listed as “significantly decreased adipogenesis”. Moreover, in assay [1], the “effect of removing the component from DMAD on percentage of positive cells and total lipid area” value is on record as “significantly decreased differentiation”.

Turning to `COc1cc(CCc2ccccc2)c(C(=O)O)c(O)c1C/C=C(\C)CCC=C(C)C` [amorfrutin B], in the assay on MSC cells, the “adipogenic differentiation in DMAD” value is reported as “able to undergo adipogenic differentiation”.
